Series [1] concerns U-87MG cells labeled with luciferase. Briefly: In vivo efficacy test, tumor imaging signal in animal models transplanted with human brain glioblastoma cell line. Also noted: species or system Balb/C female nude mice. As to conditions: 2.25 mg/kg once daily. The method, then:
(§1) The human brain glioblastoma cell line U-87MG (purchased from ATCC) was incubated in Eagle's Minimum Essential Medium (EMEM) supplemented with 10% FBS, 100 U/ml penicillin, and 100 μg/ml streptomycin in an incubator under conditions of 37° C., 5% CO2, and 95% air. The medium was exchanged every three days.
(§2) The U-87MG cells labeled with luciferase were inoculated into the primary site of the brain in […] Balb/C female nude mice weighing 16-19 g, and the amount of cells inoculated was 5×10^5/5 uL. The animals were subjected to imaging examinations on the 6th day after the inoculation, when the surgical sites of the animals were restored and the tumor cells were slightly grown. The animals were randomly divided into two groups, four animals for each group, according to the imaging results. A test group was administered with a solution containing Example 1 dissolved in physiological saline (0.9% NaCl), and a control group was administered with only physiological saline, which is a solvent used for the test group. The animals of the two groups were administered once daily with physiological saline or 2.25 mg/kg Example 1. The dose was 10 uL/g on the basis of the weight of the animals. During the administration, the weight and health conditions of the animals were continuously monitored, and at the same time, the animals were subjected to image examination.

The subject of series [2] is glioblastoma in the left parieto-temporal lobe. Briefly: Clinical Test-2: patient. It is filed as in vivo, human. The following applies: after surgery, radiotherapy and Tremodal. On the procedure: (§3) The following clinical tests were conducted using the composition of Example 1.
This patient with symptoms of headache, vomiting, diplopia, and visual field defect was diagnosed with glioblastoma in the left parieto-temporal lobe. On the 3rd day after the diagnosis, tumor removal was conducted by surgery, and the tumor was confirmed as glioblastoma of the WHO grade IV/IV as a result of pathologic diagnosis. Radiotherapy with Tremodal treatment (61.2 Gy/33fx) was performed from the 45th day to the 90th day after the diagnosis. The remaining tumors were still confirmed on MRI images after the radiotherapy and Tremodal treatment. From the 95th day after the diagnosis, 5 mg of Example 1 was administered three times a day for 17 months. […] The pre-treatment MRI images of this patient are shown in FIG. 7, and MRI images after the surgery and radiotherapy are shown in FIG. 8. Respective images after four months, seven months, and ten months of administration of Example 1 are shown in FIGS. 9A, 9B, and 9C, respectively.

For another series, the system named is gliomatosis cerebri. Briefly: Clinical Test-1: patient. The format is in vivo, human. On the procedure:
as §3
From the 10th day after the diagnosis, mobility weakening and trembling symptoms of both arms began to appear and then proceeded rapidly. […] Pre-treatment MRI images of this patient are shown in FIG. 4, and MRI images after two months and three months of radiotherapy together with administration of Example 1 are shown in FIGS. 5 and 6, respectively.

Series [3] relates to human brain glioblastoma cell line U-87MG. Briefly: Cell proliferation assay (MTT assay), U-87MG. The format is cell-based. The method, then: (§4) Fetal bovine serum (FBS) and cell culture medium were prepared (Hyclone), and dimethyl sulfoxide (DMSO) and 3-(4,5-dimetyl-thiazol-2yl)-2,5-diphenyltetrazolium bromide (MTT, Amresco LLC, USC) were prepared.
(§5) As human cancer cell lines, human brain glioblastoma cell lines U-87MG and U-118MG were obtained from the Shanghai Cell Bank of Chinese Academy of Sciences. The cells were incubated in Eagle's Minimum Essential Medium (EMEM), supplemented with 10% FBS, 100 U/ml penicillin, and 100 μg/ml streptomycin according to the culture condition, in a humidified incubator with 5% CO2 and 95% air. The medium was exchanged every three days.
(§6) The effects of Example 1 and Comparative Examples 1 to 3 on cell proliferation were assessed using MTT assay. MTT assay is based on the ability of viable cells against MTT to produce insoluble dark blue formazan products. After the cells were suspended in the medium by trypsin treatment and collected, the cells were dispensed at a density of 4×10^3 cells/well in a 96-well culture dish (Costar, Cambridge, Mass., USA). After 24 hours, Example 1 and Comparative Examples 1 to 3 as treatment samples were added, at 0, 0.625, 1.25, 2.5, 5, 10, 20, 40, or 80 μM, to the cells in the media containing 10% FBS, and then the cells were incubated. […] All the crystals were completely dissolved by standing at room temperature for 15 minutes, and the absorbance was measured using a micro-plate reader at a wavelength of 570 nm (A570 nm).
(§7) The absorbance value of the control group treated without the sample was calculated as 100, and the absorbance value of the treatment group treated with the sample, compared with that of the control group, was calibrated, and the percentage of inhibition of cell proliferation was calculated according to the following equation. Percentage (%) of inhibition of cell proliferation=((mean absorbance of control group cells−mean absorbance of treatment group cells)/mean absorbance of control group cells)×100
(§8) All data were expressed as mean±standard error of the mean (mean±SEM). […]
(Tetrazolium dyes change colour on reduction, which living cells bring about.)

The nature of series [4]: Weight measurement in animal models transplanted with human brain glioblastoma cell line. The format is in vivo, Balb/C female nude mice. On the procedure:
as §1, §2

The subject of series [5] is human brain glioblastoma cell line U-118MG. Nature of the series: Cell proliferation assay (MTT assay), U-118MG. It is filed as cell-based. On the procedure: as §4, §5, §6, §7, §8
[6] abbreviates: from the 7th day of administration (FIG. 10A).
Setting [7] is: compared with Comparative Example 2 or 3 (4:1 or 1:1 mixtures).

With tetraarsenic hexoxide [Example 1], in series [1] (7th and 9th days of administration (FIG. 10B), control group vs test group), the “luminescence signal intensities due to the proliferation and metastasis of tumors” value is given as “in the control group were much stronger than those in the test group”. In addition, in series [1] (setting [6]), the tumor signal intensities result is “significantly light”. Moreover, the “tumor signals in the spine (tumor metastasis into the spine)” value in series [1] (setting [6]) is given as “hardly observed in the spine”. In addition, the “sizes of remaining tumors (MRI)” value in series [2] (5 mg three times a day for 17 months) was “confirmed to decrease”. For the same substance, in series [2] (5 mg three times a day, from 2 months of administration), the subjective symptoms result is listed as “no subjective symptom”. Also, in the series with gliomatosis cerebri (15 mg per day from the 17th day after the diagnosis, before radiotherapy), the “mobility weakening and trembling symptoms” value is “began to improve”. Besides, the symptoms entry in the series on gliomatosis cerebri (15 mg per day together with radiotherapy from the 27th to the 75th day after the diagnosis) was “the symptoms disappeared completely”. The “tumor size on MRI images” value was “tumors almost disappeared” with gliomatosis cerebri (after three months of radiotherapy together with administration (FIG. 6)) and “tumor sizes were reduced” in the series with gliomatosis cerebri (after two months of radiotherapy together with administration (FIG. 5)). For the same substance, the “percentage of inhibition of brain glioblastoma cell proliferation” value is given as “higher” in series [3] (setting [7]); “higher” in series [3] (incubation 48 hours (FIG. 2A), compared with Comparative Example 1); “higher” in series [3] (incubation 72 hours (FIG. 2B), compared with Comparative Example 1); “higher” in series [5] (setting [7]); “higher” in series [5] (incubation 48 hours (FIG. 3A), compared with Comparative Example 1); “higher” in series [5] (incubation 72 hours (FIG. 3B), compared with Comparative Example 1). Moreover, the “Body change 9 days after the first administration” value in series [4] (2.25 mg/kg once daily) is -0.8 g. For the same substance, the “Weight 9 days after the first administration” value in series [4] (2.25 mg/kg once daily, mean ± SEM, 4 animals) is on record as 16.1 ± 0.5 g. Further, in series [4] (2.25 mg/kg once daily, control group largely reduced), the “weight after 9 days of drug administration (in words)” value is recorded as “almost unchanged weight”. This substance returned a Weight before administration in series [4] (test group, mean ± SEM, 4 animals, baseline) of 16.9 ± 0.2 g.

For the origin of these results see US10493100B2, “Pharmaceutical composition for preventing or treating brain cancer including crystal polymorph of tetraarsenic hexoxide, and method for preparing same” (CHEMAS CO., LTD., priority 2016, dated 2019).
